Laboratory results as given in patent US11198711B2 (priority 2013, dated 2021).

How the values were obtained:
[1] = system: Mamestra brassicae larvae; assay: Injection bioassay with Mamestra brassicae larvae; assay type: in vivo; conditions: injection at up to 40 μg/insect
Description: 3rd-5th instar Mamestra brassicae larvae (approximately 30-55 mg in weight) were used for injection bioassays. Larvae were injected with varying doses of Hv1a, pro-Hv1a, pro-Hv1a/GNA, PI1a, Ao1bProPI1a, PI1a/GNA, Ao1bPro-PI1a/GNA, or Hv1aPro-PI1a/GNA (n=20 per dose) in 5 μl of PBS (phosphate buffered saline; 0.15 M NaCl, 0.015 M sodium-phosphate buffer, pH 7.2). Larvae for controls were injected with 5 μl 1×PBS. Paralysis and mortality was recorded 12-96 h after injection.

[2] = system: Mamestra brassicae larvae; assay: Droplet-feeding (oral) assay with Mamestra brassicae larvae; assay type: in vivo
Description: Droplet-feeding assays were carried out to assess the oral activity of Hv1a/GNA, pro-Hv1a/GNA, PI1a, Ao1bProPI1a, PI1a/GNA, Ao1bPro-PI1a/GNA, or Hv1aPro-PI1a/GNA towards third to fifth instar larvae of M. brassicae. Larvae were starved for approximately 24 h before feeding in order to encourage droplet consumption. Larvae were fed with a 2 μl droplet containing 20 μg of the above fusion proteins, 30 μg of toxins or 30 μg of GNA, in 1×PBS solution containing 10% sucrose (w/w). Control larvae were fed on PBS/sucrose droplets containing no added protein. Treated larvae were placed on standard artificial diet after consumption of the droplet.

[3] = system: invertebrate calcium channels; conditions: cited from earlier work
[4] = system: vertebrate calcium channels; conditions: cited from earlier work
Spodoptera sp. = conditions: native PI1a, literature value; cited from earlier work

snowdrop lectin (GNA)
mortality [1]: do not result in mortality | reductions in survival ([2]; 30 μg control treatments, 3rd stadium): 0-20% | mortality after 5 days ([2]; single 2 μl droplet containing 20 μg, third instar): 20%

ω-ACTX-Hv1a [Hv1a (literature)]
block of invertebrate calcium channels [3]: block invertebrate | block of vertebrate calcium channels [4]: not vertebrate

δ-amaurobitoxin-PI1a [Pl1a (literature)]
LD50 (Spodoptera sp.): 9.5 µg/g
